{"source": "patent US7988776B2", "about": "“Coloring composition, thermal transfer recording ink sheet, thermal transfer recording method, color toner, inkjet ink, color filter, and azo dye” (Fujifilm Corporation, priority 2007, dated 2011)", "format_in_all_cases": "physicochemical", "key": {"[1]": {"test": "Absorption spectrometry in ethyl acetate solution (maximum absorption wavelength)", "conditions": "concentration 1×10^−6 mol/L, optical path length 10 mm", "method": "The thus-obtained compounds (1), (2), (5) and (10) were analyzed absorption spectrometry in an ethyl acetate solution (concentration: 1×10^−6 mol/L, optical path length: 10 mm)."}, "[2]": {"test": "Dye solubility in ink sheet construction", "design": "key: A (easily soluble); B (soluble); C (difficult to dissolve, but soluble)", "conditions": "dye-donating layer-forming coating composition, methyl ethyl ketone/toluene (1/1)", "text": "A polyester film (Lumirror, trade name by Toray) having a thickness of 6.0 μm and processed for heat-resistant lubrication with a thermosetting acrylic resin (thickness 1 μm) on its back was used as a support.\nThe dye solubility was ranked in three, A (easily soluble), B (soluble) r C (difficult to dissolve, but soluble)."}, "[3]": {"test": "Light fastness of recorded images under Xe light", "conditions": "retention of status A reflection density 1.0 after Xe light (17000 lux) for 7 days", "method": "Next, the recorded samples were exposed to an Xe light (17000 lux) for 7 days, and tested for the light stability (light fastness) of the recorded images. After the exposure, the status A reflection density of the part of each sample having an original status A reflection density of 1.0 before the exposure was measured, and the retention (by percentage) to the reflection density of 1.0 after exposure to that before exposure indicates the image stability. With the retention percentage, the samples were ranked in three, A (from 80% to less than 100%), B (from 60% to less than 80%), C (less than 60%)."}}}
{"molecule": "C=CCN(CC=C)c1ccc(/N=N/c2c(C#N)c(C(C)(C)C)nn2S(C)(=O)=O)c(NC(C)=O)c1", "note": "[(5)]", "values": [{"measurement": "Maximum Absorption Wavelength", "setting": "[1]", "value": 539, "unit": "nm"}, {"measurement": "Solubility", "setting": "[2]", "value": "A"}, {"measurement": "Light Fastness", "setting": "[3]", "value": "A (A (from 80% to less than 100%))"}]}
